Measured values published in the supplement of paper PMC4862054.

Assays:
Settings in all cases: incubation time: 72 h
BT-474 [1] = assay: normalised response (% of control), CellTox Green; higher = less cell death (100 = DMSO, 0 = benzethonium chloride kill control)
Outline: (§1)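 Every value is a normalised signal taken at one concentration of a dilution series. Compound was placed in 384-well plates at 5 concentrations in 10-fold steps over a compound-specific 10,000-fold range, and 20 µl of breast cancer cell suspension was seeded onto it. After 72 h, CellTox Green fluorescence (485/520 nm) was measured first and CellTiter-Glo luminescence second, following 10 min at room temperature. Each plate was scaled to 0.1 % DMSO (100) and a positive kill control (0).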

BT-549 [2] = assay: as above
Outline: as §1

CAL-120 [3] = assay: as above
Outline: as §1

CAL-148 [4] = assay: as above
Outline: as §1

CAL-51 [5] = assay: as above
Outline: as §1

CAL-85-1 [6] = assay: as above
Outline: as §1

DU-4475 [7] = assay: as above
Outline: as §1

HCC1143 [8] = assay: as above
Outline: as §1

HCC1599 [9] = assay: as above
Outline: as §1

HCC1937 [10] = assay: as above
Outline: as §1

HDQ-P1 [11] = assay: as above
Outline: as §1

Hs578T [12] = assay: as above
Outline: as §1

MCF-10A [13] = assay: as above
Outline: as §1

MDA-MB-231 [14] = assay: as above
Outline: as §1

MDA-MB-436 [15] = assay: as above
Outline: as §1

MDA-MB-453 [16] = assay: as above
Outline: as §1

MDA-MB-468 [17] = assay: as above
Outline: as §1

MFM-223 [18] = assay: as above
Outline: as §1

BT-474 [19] = assay: normalised response (% of control), CellTiter-Glo; higher = more viable cells (100 = DMSO, 0 = benzethonium chloride kill control)
Outline: as §1

BT-549 [20] = assay: as above
Outline: as §1

CAL-120 [21] = assay: as above
Outline: as §1

CAL-148 [22] = assay: as above
Outline: as §1

CAL-51 [23] = assay: as above
Outline: as §1

CAL-85-1 [24] = assay: as above
Outline: as §1

DU-4475 [25] = assay: as above
Outline: as §1

HCC1143 [26] = assay: as above
Outline: as §1

HCC1599 [27] = assay: as above
Outline: as §1

HCC1937 [28] = assay: as above
Outline: as §1

HDQ-P1 [29] = assay: as above
Outline: as §1

Hs578T [30] = assay: as above
Outline: as §1

MCF-10A [31] = assay: as above
Outline: as §1

MDA-MB-231 [32] = assay: as above
Outline: as §1

MDA-MB-436 [33] = assay: as above
Outline: as §1

MDA-MB-453 [34] = assay: as above
Outline: as §1

MDA-MB-468 [35] = assay: as above
Outline: as §1

MFM-223 [36] = assay: as above
Outline: as §1

SK-BR-3 = assay: as above
Outline: as §1

Structure (SMILES)	normalised response (BT-474 [1])	normalised response (BT-549 [2])	normalised response (CAL-120 [3])	normalised response (CAL-148 [4])	normalised response (CAL-51 [5])	normalised response (CAL-85-1 [6])	normalised response (DU-4475 [7])	normalised response (HCC1143 [8])	normalised response (HCC1599 [9])	normalised response (HCC1937 [10])	normalised response (HDQ-P1 [11])	normalised response (Hs578T [12])	normalised response (MCF-10A [13])	normalised response (MDA-MB-231 [14])	normalised response (MDA-MB-436 [15])	normalised response (MDA-MB-453 [16])	normalised response (MDA-MB-468 [17])	normalised response (MFM-223 [18])	normalised response (BT-474 [19])	normalised response (BT-549 [20])	normalised response (CAL-120 [21])	normalised response (CAL-148 [22])	normalised response (CAL-51 [23])	normalised response (CAL-85-1 [24])	normalised response (DU-4475 [25])	normalised response (HCC1143 [26])	normalised response (HCC1599 [27])	normalised response (HCC1937 [28])	normalised response (HDQ-P1 [29])	normalised response (Hs578T [30])	normalised response (MCF-10A [31])	normalised response (MDA-MB-231 [32])	normalised response (MDA-MB-436 [33])	normalised response (MDA-MB-453 [34])	normalised response (MDA-MB-468 [35])	normalised response (MFM-223 [36])	normalised response (SK-BR-3)
CN1CCN(CCOc2cc(OC3CCOCC3)c3c(Nc4c(Cl)ccc5c4OCO5)ncnc3c2)CC1 [Saracatinib] (1000 nM)	96.4%	93%	96.6%	99.3%	68.5%	68.5%	98.9%	76.8%	96%	86.5%	86.8%	83.4%	106%	77.6%	77.6%	101%	181%	93.9%	71.1%	89.9%	81.9%	84.1%	74.3%	61.7%	94%	74.6%	119%	83.3%	53.2%	96.1%	41.5%	64.6%	93.9%	88.2%	79.2%	89.7%	92.7%
Cn1c(=O)n(-c2ccc(C(C)(C)C#N)cc2)c2c3cc(-c4cnc5ccccc5c4)ccc3ncc21 [Dactolisib] (100 nM)	104%	134%	89.3%	72.8%	104%	94.4%	94.5%	109%	103%	65%	109%	108%	108%	108%	110%	98%	134%	99.3%	62.1%	23.8%	29.1%	30.4%	31.7%	39.9%	41%	45.5%	80.4%	57.3%	52.7%	35.2%	45.2%	50.4%	62%	38.8%	39%	39.1%	30%
COc1ccc(-c2ccc3c(N4CCOC[C@@H]4C)nc(N4CCOC[C@@H]4C)nc3n2)cc1CO [AZD8055] (1000 nM)	86.1%	116%	96%	39.6%	80.1%	87.8%	83.3%	74.1%	94.2%	56.8%	103%	102%	91.7%	87.4%	92.4%	104%	118%	93.6%	46.6%	21.5%	18%	13.9%	20.3%	25.3%	23.2%	24.2%	67.2%	45.7%	32.3%	29.4%	27.8%	36.5%	45.8%	31.3%	23.6%	27.6%	20.3%
